The values that follow are results of earlier work, collected in article PMC10488193, “Evaluation of the Chemical Stability, Membrane Permeability and Antiproliferative Activity of Cyclic Diarylheptanoids from European Hornbeam (Carpinus betulus L.)” (International Journal of Molecular Sciences, 2023).

A value given as a limit tells only on which side of the number the result lay.

The test system of this series is HeLa human cervical adenocarcinoma cells. Also on record: method as in PMID 28520428, PMID 28941682. The settings on record: cited from earlier work.

For the molecule `O=C1CCc2ccc(O)c(c2)-c2cc(ccc2O)C[C@H](O)[C@H](O)[C@H]1O` [Compound 2, carpinontriol B], the IC50 is above 100 µM.
